According to patent US20220142967A1, “Methods and Compositions for the Treatment of Multiple Sclerosis” (SYMBIONYX PHARMACEUTICALS INC, priority 2018, published 2022):
Counter-ions that a name gives are not always drawn.

How the values were obtained:
cultured astrocytes = assay: RNA-seq of cultured astrocytes compared with MS patient white matter astrocytes (GSE83670); assay type: cell-based, human
Description: Previously, Waller et al. 2016 (J Neuroimmunol 299:139-146) used laser capture microdissection (LCM) to isolate astrocytes from normal appearing white matter in MS patients and CTL subjects (GEO dataset GSE83670; PMID: 27125112).
cDNA sequencing was performed by the University of Michigan sequencing core facility (50 cycle single end Illumina HiSeq 2000). The FASTX-Toolkit was used to filter reads by removing low quality sequences and initial quality assessments were performed using FastQC. Quality-filtered reads were mapped to the human genome (hg38/GRCh38, UCSC) using tophat2 with default settings, except multi-mapping of reads to multiple genome locations was disallowed (settings: -g 1 —no-coverage-search). The hg38/GRCh38 genome is the most recent release available from UCSC. HTSeq was used to tabulate the number of reads mapping to each genome feature and Cufflinks was used to calculate FPKM estimates and associated confidence intervals. RSeQC was used to assess quality of mapping and calculate the percentage of mapped reads. The negative binomial model (edgeR) was used to evaluate differential expression, with read counts normalized using the weighted trimmed mean of M-values method, and dispersions estimated using the Cox-Reid (CR)-adjusted likelihood approach. Differential expression analyses were performed using genes with detectable expression in at least 1 of 4 samples involved in a given comparison. A gene was considered to have detectable expression in a sample if the count per million mapped reads (cpm) estimate was greater than 0.20 and if the lower bound of the FPKM 95% confidence interval was greater than zero.
FIG. 3 presents in scatterplot and histogram format the results of the study on the astrocytes. Scatterplots (A) and (D) compare fold change (FC) estimates in DMF-treated (A) and IDMF-treated (D) astrocytes to LCM-dissected astrocytes in MS patients and healthy controls (CTLs). Each point represents a protein-coding gene and the light colored ellipses outline the 90% of genes closest to the bivariate mean based upon the Mahalanobis distance. The Spearman rank correlation coefficient estimate is shown (upper-left). The proportion of genes within each quadrant is indicated in the upper margin (P<0.05, Fisher's exact test), wherein the quadrants are defined by a vertical and horizontal line through the “1” in each axis with the proportion corresponding, left to right to the upper left, the upper right, the lower right and lower left quadrants, respectively. Gene set overlap is presented in (B), (C), (E) and (F) wherein genes within each set were altered with a P<0.05 threshold. P-values from the test of overlap significance are shown (bottom margin, Fisher's exact test). […]

[1] = test system: NRF2 (NF-E2-related factor 2) transcription factor; assay: Cignal ARE Reporter Assay, NRF2-mediated luciferase gene expression in HEK293 cells; assay type: cell-based; conditions: HEK293, 24 h
Description: 2017 December; 23(14):1875-1883. doi: 10.1177/1352458517690617. Epub 2017 Feb.
The experiments were performed using HEK293 cells (Sigma, St. Louis, Mo.; cat. #85120602) seeded at 50,000 per well in a 96 well white opaque-wall tissue culture plates. Cells were transfected by mixing Cignal Reporter Assay firefly/renilla luciferase constructs (cat. # CCS-5020L; Qiagen) with Attractene Transfection Reagent (Qiagen) in Opti-MEM (ThermoFisher Scientific, Waltham, Mass.) supplemented with 1% MEM Non-essential amino acid solution without L-glutamine (Sigma; cat. #M7145). After medium change test materials were added and their effect on NRF2 induction was quantified 24 h later with the Dual-Luciferase Reporter Assay System (cat. #E1960; Promega, Madison, Wis.).
The ARE (antioxidant response element) reporter is a mixture of a Nrf2-responsive luciferase construct encoding the firefly luciferase reporter gene under the control of a minimal (m)CMV promoter and tandem repeats of the ARE transcriptional response element, and a constitutively expressing Renilla element (40:1), which acts as an internal control for normalizing transfection efficiencies and monitoring cell viability. […] Signal quantification was obtained with ThermoFisher Scientific Luminoskan Ascent Microplate Luminometer.

[2] = target: T1, carboxylesterase 2 (CES2) (Homo sapiens, UniProt O00748); assay: Carboxylesterase hydrolysis IDMF v DMF; assay type: in vitro ADME; conditions: for remaining parent compound: 1 mg/ml CES2, 37° C., pH 7.4
T1 sequence (O00748 27-559): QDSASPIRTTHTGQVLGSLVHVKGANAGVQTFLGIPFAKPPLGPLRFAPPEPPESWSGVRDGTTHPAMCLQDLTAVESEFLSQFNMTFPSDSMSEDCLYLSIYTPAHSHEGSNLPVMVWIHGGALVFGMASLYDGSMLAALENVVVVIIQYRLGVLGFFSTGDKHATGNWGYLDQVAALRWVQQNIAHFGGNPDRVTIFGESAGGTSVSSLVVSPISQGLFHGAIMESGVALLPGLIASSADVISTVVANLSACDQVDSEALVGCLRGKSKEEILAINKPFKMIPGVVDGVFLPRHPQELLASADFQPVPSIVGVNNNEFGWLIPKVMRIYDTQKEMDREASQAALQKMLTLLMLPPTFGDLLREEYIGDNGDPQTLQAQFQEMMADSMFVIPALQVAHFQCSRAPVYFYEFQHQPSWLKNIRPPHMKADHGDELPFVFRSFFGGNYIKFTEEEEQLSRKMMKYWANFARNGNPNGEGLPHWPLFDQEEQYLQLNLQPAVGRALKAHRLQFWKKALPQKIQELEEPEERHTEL
Description: IDMF and DMF were subjected to carboxylesterase hydrolysis. […] 1 mg/ml carboxylesterase 2 (CES2) was added to each solution and the solutions incubated at 37° C. for the time periods set forth in Table 5. […] Isosorbide was quantified using CAD. Mobile phase used for the study: 0.1% Formic acid in water; B: Methanol. Column: Luna C18 4.6 mm×100 mm, 5 u (Phenomenex). Flow rate: 1.0 ml/min.

number of genes decreased by IDMF (P<0.05) and increased in MS (P<0.05) (cultured astrocytes): 82 genes
remaining parent compound ([2]; 0 minutes): 1.027 mM
remaining parent compound ([2]; 15 minutes): 0.072 mM
time by which essentially all is hydrolyzed ([2]; CES2, 37° C.): ≤ 15 min
Compound: COC(=O)/C=C/C(=O)O[C@H]1CO[C@H]2[C@@H]1OC[C@H]2OC(=O)/C=C/C(=O)OC [IDMF, isosorbide di-(methyl fumarate)]
protein-coding genes increased by IDMF (FC>1.00) but decreased in MS patients (FC<1.00) (cultured astrocytes): 35.08%
correlation of genome-wide expression responses with those observed in MS patients (Spearman r) (cultured astrocytes; cultured astrocytes vs. LCM-dissected MS patient astrocytes): negatively correlated
Fold Change v. water control (1), NRF2-mediated luciferase gene expression ([1]; 1 μg/ml): 2.78 fold
Fold Change v. water control (1), NRF2-mediated luciferase gene expression ([1]; 10 μg/ml): 4.61 fold
